In article PMC3518039 (Journal of medicinal chemistry, 2012):

Columns and labels:
[1] = molecular target: Mycobacterium tuberculosis Rv0183 (monoglyceride lipase) (Mycobacterium tuberculosis, UniProt O07427); type: biochemical
[2] = molecular target: Mycobacterium tuberculosis LipY (triacylglycerol lipase) (Mycobacterium tuberculosis, UniProt I6Y2J4); type: biochemical
Fusarium solani Cutinase = Fusarium solani Cutinase (Fusarium vanettenii, UniProt P00590); type: biochemical, Fusarium solani pisi
Fusarium solani Cutinase, sequence (P00590 17-230): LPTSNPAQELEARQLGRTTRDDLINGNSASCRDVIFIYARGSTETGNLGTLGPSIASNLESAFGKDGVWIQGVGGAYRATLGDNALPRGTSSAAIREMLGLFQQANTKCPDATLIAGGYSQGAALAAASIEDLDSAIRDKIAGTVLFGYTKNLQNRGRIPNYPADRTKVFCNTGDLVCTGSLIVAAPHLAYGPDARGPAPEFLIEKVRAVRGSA

LipY = molecular target: T1, LipY (Mycobacterium tuberculosis, UniProt I6Y2J4); type: binding
T1 sequence (I6Y2J4 1-437): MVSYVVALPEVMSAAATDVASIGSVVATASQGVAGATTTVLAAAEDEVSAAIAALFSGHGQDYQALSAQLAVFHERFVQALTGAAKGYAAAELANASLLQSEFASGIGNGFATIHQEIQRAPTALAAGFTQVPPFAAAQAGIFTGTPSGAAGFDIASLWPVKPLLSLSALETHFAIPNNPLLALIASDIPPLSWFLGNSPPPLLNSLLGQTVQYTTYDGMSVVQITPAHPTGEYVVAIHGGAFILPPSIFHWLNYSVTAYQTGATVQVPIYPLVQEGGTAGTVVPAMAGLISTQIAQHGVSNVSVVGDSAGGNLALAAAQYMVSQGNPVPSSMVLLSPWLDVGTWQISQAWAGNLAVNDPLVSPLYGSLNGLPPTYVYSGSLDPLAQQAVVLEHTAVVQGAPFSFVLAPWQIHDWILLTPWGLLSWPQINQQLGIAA

Mycobacterium tuberculosis Rv0183 (monoglyceride lipase), sequence (O07427 whole entry, looked up): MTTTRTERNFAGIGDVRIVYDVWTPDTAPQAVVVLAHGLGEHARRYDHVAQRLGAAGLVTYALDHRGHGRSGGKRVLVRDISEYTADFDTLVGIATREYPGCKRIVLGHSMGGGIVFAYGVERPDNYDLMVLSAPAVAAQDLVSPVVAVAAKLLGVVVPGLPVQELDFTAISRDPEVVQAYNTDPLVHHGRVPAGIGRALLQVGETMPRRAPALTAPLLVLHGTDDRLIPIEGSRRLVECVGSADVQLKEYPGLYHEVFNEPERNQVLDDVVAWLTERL

How did the “DI (Diastereoselectivity Index between trans-(α) and cis-(β) isomers), Rv0183” value [1] turn out when `CCCCCCCCCCC1CCP(=O)(OC)OC(C)=C1C(=O)OC` (racemic) [Compound 7(β), (±) Methyl 5-decyl-2-methoxy-7-methyl-2,3,4,5-tetrahydro-1,2-oxaphosphepine-6-carboxylate 2-oxide] was run?
The value was 51.9%.

What about the “half-inactivation time (t1/2), Rv0183” value [1] of the same molecule?
The value was 86.4 s.

And the “residual lipase activity (plateau), Rv0183” value [1]?
The value was “around 6.0%”.

And the “DI (Diastereoselectivity Index between trans-(α) and cis-(β) isomers), LipY” value [2]?
Its value is 80.3%.

What about the “DI (Diastereoselectivity Index between trans-(α) and cis-(β) isomers), Cutinase” value (Fusarium solani Cutinase) of the same molecule?
The value was 76.2%.

What does the source list for `CCCCCCCCCCCCC1CCP(=O)(OC)OC(C)=C1C(=O)OC` (racemic) [8(β), (±) Methyl 5-dodecyl-2-methoxy-7-methyl-2,3,4,5-tetrahydro-1,2-oxaphosphepine-6-carboxylate 2-oxide]?
DI (Diastereoselectivity Index between trans-(α) and cis-(β) isomers), Rv0183 [1]: 36.3%; DI (Diastereoselectivity Index between trans-(α) and cis-(β) isomers), LipY [2]: 28.0%; DI (Diastereoselectivity Index between trans-(α) and cis-(β) isomers), Cutinase (Fusarium solani Cutinase): 29.0%

Which “DI (Diastereoselectivity Index between trans-(α) and cis-(β) isomers), Rv0183” value [1] does the source give for `CCCCCCCCCCC1CCP(=O)(OC)OC(C)=C1C(=O)OC` (racemic) [7(α), (±) Methyl 5-decyl-2-methoxy-7-methyl-2,3,4,5-tetrahydro-1,2-oxaphosphepine-6-carboxylate 2-oxide] here?
Its value is 51.9%.

And the “DI (Diastereoselectivity Index between trans-(α) and cis-(β) isomers), LipY” value [2]?
The value was 80.3%.

What about the “DI (Diastereoselectivity Index between trans-(α) and cis-(β) isomers), Cutinase” value (Fusarium solani Cutinase) of the same molecule?
Its value is 76.2%.

What does the source list for `CCCCCC1CCP(=O)(OC)OC(C)=C1C(=O)OC` (racemic) [6(β), (±) Methyl 2-methoxy-7-methyl-5-pentyl-2,3,4,5-tetrahydro-1,2-oxaphosphepine-6-carboxylate 2-oxide]?
DI (Diastereoselectivity Index between trans-(α) and cis-(β) isomers), Rv0183 [1]: 16.7%; xI50 (inhibitor molar excess leading to 50% lipase inhibition), LipY [2]: > 100; DI (Diastereoselectivity Index between trans-(α) and cis-(β) isomers), Cutinase (Fusarium solani Cutinase): 89.7%

For `CCCCCCCCCCCCCCCCC1CCP(=O)(OC)OC(C)=C1C(=O)OC` (racemic) [9(β), (±) Methyl 5-hexadecyl-2-methoxy-7-methyl-2,3,4,5-tetrahydro-1,2-oxaphosphepine - 6-carboxylate 2-oxide], which “DI (Diastereoselectivity Index between trans-(α) and cis-(β) isomers), Rv0183” value [1] is on record?
The value was over 97.0%.

What about the “DI (Diastereoselectivity Index between trans-(α) and cis-(β) isomers), LipY” value [2] of the same molecule?
Its value is 70.5%.

And the “DI (Diastereoselectivity Index between trans-(α) and cis-(β) isomers), Cutinase” value (Fusarium solani Cutinase)?
The value was 27.2%.

What does the source list for `CCCCCCCCCCCCCCCCC1CCP(=O)(OC)OC(C)=C1C(=O)OC` (racemic) [9(α), (±) Methyl 5-hexadecyl-2-methoxy-7-methyl-2,3,4,5-tetrahydro-1,2-oxaphosphepine - 6-carboxylate 2-oxide]?
DI (Diastereoselectivity Index between trans-(α) and cis-(β) isomers), Rv0183 [1]: > 97.0%; DI (Diastereoselectivity Index between trans-(α) and cis-(β) isomers), LipY [2]: 70.5%; DI (Diastereoselectivity Index between trans-(α) and cis-(β) isomers), Cutinase (Fusarium solani Cutinase): 27.2%

`CO[P@]1(=O)OC[C@H]2COC(=O)C2=C(C)O1` [Compound 1, Cyclophostin] was tested. Which “xI50 (inhibitor molar excess leading to 50% lipase inhibition), LipY” value [2] did it give?
Its value is over 100.

What about the “half-inactivation time (t1/2), Cutinase” value (Fusarium solani Cutinase) of the same molecule?
Its value is 10.8 s.

What about the “residual lipase activity (plateau), Cutinase” value (Fusarium solani Cutinase) of the same molecule?
The value was “around 6.0%”.

Which “DI (Diastereoselectivity Index between trans-(α) and cis-(β) isomers), Rv0183” value [1] does the source give for `CCCCCCCCCCCCC1CCP(=O)(OC)OC(C)=C1C(=O)OC` (racemic) [8(α), (±) Methyl 5-dodecyl-2-methoxy-7-methyl-2,3,4,5-tetrahydro-1,2-oxaphosphepine-6-carboxylate 2-oxide] here?
Its value is 36.3%.

And the “DI (Diastereoselectivity Index between trans-(α) and cis-(β) isomers), LipY” value [2]?
Its value is 28.0%.

And the “DI (Diastereoselectivity Index between trans-(α) and cis-(β) isomers), Cutinase” value (Fusarium solani Cutinase)?
Its value is 29.0%.

`CCCCCCCCCCCCCCCCCCC1CCP(=O)(OC)OC(C)=C1C(=O)OC` (racemic) [10(β), (±) Methyl 2-methoxy-7-methyl-5-octadecyl-2,3,4,5-tetrahydro-1,2-oxaphosphepine-6-carboxylate 2-oxide] was tested. Which “DI (Diastereoselectivity Index between trans-(α) and cis-(β) isomers), Rv0183” value [1] did it give?
The value was over 93.0%.

And the “DI (Diastereoselectivity Index between trans-(α) and cis-(β) isomers), LipY” value [2]?
Its value is 81.3%.

And the “DI (Diastereoselectivity Index between trans-(α) and cis-(β) isomers), Cutinase” value (Fusarium solani Cutinase)?
The value was 72.1%.

With `CCCCCCCCCCCCCCCCCCC1CCP(=O)(OC)OC(C)=C1C(=O)OC` (racemic) [10(α), (±) Methyl 2-methoxy-7-methyl-5-octadecyl-2,3,4,5-tetrahydro-1,2-oxaphosphepine-6-carboxylate 2-oxide] as the molecule, how does the “DI (Diastereoselectivity Index between trans-(α) and cis-(β) isomers), Rv0183” value [1] read?
Its value is over 93.0%.

What about the “DI (Diastereoselectivity Index between trans-(α) and cis-(β) isomers), LipY” value [2] of the same molecule?
Its value is 81.3%.

And the “DI (Diastereoselectivity Index between trans-(α) and cis-(β) isomers), Cutinase” value (Fusarium solani Cutinase)?
Its value is 72.1%.

`CCCCCC1CCP(=O)(OC)OC(C)=C1C(=O)OC` (racemic) [6(α), (±) Methyl 2-methoxy-7-methyl-5-pentyl-2,3,4,5-tetrahydro-1,2-oxaphosphepine-6-carboxylate 2-oxide] was tested. Which “DI (Diastereoselectivity Index between trans-(α) and cis-(β) isomers), Rv0183” value [1] did it give?
Its value is 16.7%.

What about the “xI50 (inhibitor molar excess leading to 50% lipase inhibition), LipY” value [2] of the same molecule?
The value was over 100.

What about the “DI (Diastereoselectivity Index between trans-(α) and cis-(β) isomers), Cutinase” value (Fusarium solani Cutinase) of the same molecule?
The value was 89.7%.

For `CCCCCCCCCCCCCCCCOP1(=O)CCCC(C(=O)OC)=C(C)O1` (stereo not shown) [Compound 11, Methyl 7-methyl-2-(hexadecyloxy)-2,3,4,5-tetrahydro-1,2-oxaphosphepine-6-carboxylate 2-oxide], which “half-inactivation time (t1/2), LipY” value [2] is on record?
Its value is 9.6 s.

And the “Mass modifications (inhibited minus native lipase), LipY” value (LipY)?
The value was “+443.8 Da”.
